Measured values reported in article PMC8745345, “Hydroxy Pentacyclic Triterpene Acid, Kaempferol, Inhibits the Human 5-Hydroxytryptamine Type 3A Receptor Activity” (International Journal of Molecular Sciences, 2022).
Changes are numbered by the printed parent chain.

Key:
Format in all cases: cell-based
[1] = target: T1, human 5-HT3A receptor (wild type) (Homo sapiens, UniProt P46098); experiment: Two-electrode voltage clamp, inhibition of serotonin-induced inward current (I5-HT) in Xenopus oocytes expressing wild-type receptor
T1 construct: expressed in transfected cells; host or cells: Xenopus oocytes injected with in vitro transcribed mRNA
T1 sequence (P46098 24-478): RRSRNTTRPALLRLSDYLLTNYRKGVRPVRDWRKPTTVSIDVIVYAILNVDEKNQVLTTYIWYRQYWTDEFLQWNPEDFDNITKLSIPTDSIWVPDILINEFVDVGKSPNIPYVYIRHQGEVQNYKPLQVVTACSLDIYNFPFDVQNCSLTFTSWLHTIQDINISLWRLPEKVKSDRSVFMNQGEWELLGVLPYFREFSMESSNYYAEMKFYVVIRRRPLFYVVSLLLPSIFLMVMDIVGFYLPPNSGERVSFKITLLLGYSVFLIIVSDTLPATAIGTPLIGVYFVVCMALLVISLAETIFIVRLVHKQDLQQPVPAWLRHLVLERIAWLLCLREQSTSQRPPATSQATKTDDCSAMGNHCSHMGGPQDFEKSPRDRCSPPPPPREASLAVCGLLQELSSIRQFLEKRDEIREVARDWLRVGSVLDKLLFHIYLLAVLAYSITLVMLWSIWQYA
Procedure: (§1) Xenopus oocytes were used in this study as cells for expression of human 5-HT3A receptor. All female frogs used in this experiment were obtained from the Korean Xenopus Resource Center for Research (KXRCR000001). […] Xenopus oocytes were extracted during ice incubation state and isolated as single oocytes using collagenase II (2 mg/mL) in OR2 buffer (82.5 mM NaCl, 2 mM KCl, 1 mM MgCl2, 5 mM HEPES, pH 7.4). Isolated oocytes were incubated with ND96 incubation buffer (96 mM NaCl, 2 mM KCl, 1 mM MgCl2, 1.8 mM CaCl2, 5 mM HEPES, 2.5 mM sodium pyruvate, and 50 mg/mL gentamycin, pH 7.4) at 18 °C until the experiment was performed. Human 5-HT3A receptor mRNA was injected into oocytes using a nanoinjector (Drummond Scientific, Broomall, PA, USA) with a mineral-filled 10 μL microdispenser (VWR, Piscataway, NJ, USA).
(§2) To confirm the KAE activity on the human 5-HT3A receptor, a two-electrode voltage clamp (OC-725C; Warner Instruments, Hamden, CT, USA) with a Digitata 1550A was used. For the experiment, induced-inward current was converted to digital data with pClamp 10 software (Axon Instruments, Union City, CA, USA). All experiments were performed at room temperature using an oocyte clamp equipped with Digidata. The membrane holding potential was −80 mV.
All presented experiments were performed at least three times for scientific verification. Data are presented as mean ± S.E.M (standard error of the mean). Induced-inward current data were analyzed with SigmaPlot 10.0 software (Systat Software, Inc., San Jose, CA, USA). To prepare a sigmoid prediction curve for induced peak data, Hill equation reflecting the binding to ligand and macromolecule was obtained with an OriginPro 9.0 software (Origin, MA, USA). The formula used was y = Vmin + (Vmax − Vmin) × [x]^n/([IC50]^n + [x]^n), where Vmin was the minimum current, Vmax was the maximum current, IC50 was the maximum half inhibitory effect percentage of inhibitory activation by KAE, [x] was the concentration of serotonin or KAE, and n was the interaction-coefficient. Statistical significance was considered when p-value was less than or equal to 0.05 (p ≤ 0.05).

[2] = target: T2, human 5-HT3A receptor W63A mutant (Homo sapiens, UniProt P46098, W85A); experiment: Two-electrode voltage clamp, I5-HT inhibition, W63A mutant; conditions: −80 mV
T2 sequence (P46098 24-478 W85A): T1 sequence (P46098 24-478) with W62A
Procedure: as §1, §2
The voltage relationship experiment for confirming the relationship between induce-inward current and voltage, the voltage was varied from −80 mV to +60 mV using a ramp protocol. […] All recording data were analyzed using Clampfit 9.0 (Molecular Devices, San Jose, CA, USA). […]
All presented experiments were performed at least three times for scientific verification. […] Induced-inward current data were analyzed with SigmaPlot 10.0 software (Systat Software, Inc., San Jose, CA, USA). […]

[3] = target: T3, human 5-HT3A receptor N101A mutant (Homo sapiens, UniProt P46098, N123A); experiment: Two-electrode voltage clamp, I5-HT inhibition, N101A mutant
T3 construct: expressed in transfected cells; host or cells: Xenopus oocytes injected with mutant mRNA
T3 sequence (P46098 24-478 N123A): T1 sequence (P46098 24-478) with N100A
Procedure: Human 5-HT3A receptor cDNA was linearized using restriction enzyme XhoI. In vitro transcription was performed using an mMESSAGE mMACHINE T7 Transcription Kit (Thermo Fisher Scientific, Waltham, MA, USA). The final mRNA product was dissolved in 1X Diethyl Pyrocarbonate (RNase-free water) at a final concentration of 1 μg/μL and kept in a deep-freezer at −80 °C until used.
Xenopus oocytes were used in this study as cells for expression of human 5-HT3A receptor. All female frogs used in this experiment were obtained from the Korean Xenopus Resource Center for Research (KXRCR000001). […] Isolated oocytes were incubated with ND96 incubation buffer (96 mM NaCl, 2 mM KCl, 1 mM MgCl2, 1.8 mM CaCl2, 5 mM HEPES, 2.5 mM sodium pyruvate, and […], pH 7.4) at 18 °C until the experiment was performed. Human 5-HT3A receptor mRNA was injected into oocytes using a nanoinjector (Drummond Scientific, Broomall, PA, USA) with a mineral-filled 10 μL microdispenser (VWR, Piscataway, NJ, USA).
For the experiment, induced-inward current was converted to digital data with pClamp 10 software (Axon Instruments, Union City, CA, USA). All experiments were performed at room temperature using an oocyte clamp equipped with Digidata. The membrane holding potential was −80 mV.
The voltage relationship experiment for confirming the relationship between induce-inward current and voltage, the voltage was varied from −80 mV to +60 mV using a ramp protocol. Each microelectrode was filled with 3 M KCl having a resistance of 0.2 MΩ. Serotonin and KAE applied in the experiment were diluted in ND96 bath solution (96 mM NaCl, 2 mM KCl, 1 mM MgCl2, 1.8 mM CaCl2, and 5 mM HEPES, pH 7.5) to specified concentration. The rate of application of the reagent was 2 mL per minute. All recording data were analyzed using Clampfit 9.0 (Molecular Devices, San Jose, CA, USA). […]
All presented experiments were performed at least three times for scientific verification. […] Induced-inward current data were analyzed with SigmaPlot 10.0 software (Systat Software, Inc., San Jose, CA, USA).

[4] = read-out: Emax of serotonin concentration-response

With `O=c1c(O)c(-c2ccc(O)cc2)oc2cc(O)cc(O)c12` [KAE, kaempferol] the “Maximum-inhibitory percentage (Imax)” value [1] was 79.3 ± 4.5%, the Vmax [1] was 79.3 ± 4.6% and the “efficacy of antagonist against I5-HT(100uM) of 5-HT3A” value [1] was 79.3 ± 4.6%. The Hill coefficient ([1]; Hill equation fit, Figure 1D, serotonin 100 μM, −80 mV) was 0.9 ± 0.1, the “competitive or non-competitive manner of inhibition” value ([1]; KAE fixed, serotonin 1–300 μM, Figure 2B) was “non-competitive manner” and the IC50 ([1]; Wild type, −80 mV, Table 1) was 23.4 ± 8.3 µM. The “n (Hill coefficient)” value ([1]; Wild type, −80 mV, Table 1) was 1.2 ± 0.3, the Emax at 10 µM [1, 4] was 79.3 ± 4.8% and the Emax at 100 µM [1, 4] was 37.7 ± 1.2%. The “inhibitory manner (reversibility)” value ([1]; serotonin and KAE 100 μM, Figure 1B) was “reversible inhibitory manner”, the “voltage dependence of inhibition” value ([1]; voltage ramp −80 to +60 mV, KAE 10 and 100 μM, serotonin 100 μM) was “voltage-independent manner” and the IC50 [2] was 33.7 ± 5.7 µM. For the same compound, the Vmax [2] was 76.3 ± 10.7%, the “n (Hill coefficient)” value [2] was 1.3 ± 0.5 and the IC50 [3] was 56.4 ± 9.7 µM. The Vmax ([3]; N101A, −80 mV) was 83.7 ± 8.6% and the “n (Hill coefficient)” value ([3]; N101A, −80 mV) was 1.1 ± 0.6.
